# Measurements: article PMC7395068, “The evolution of strategies to minimise the risk of human drug-induced liver injury (DILI) in drug discovery and development” (Archives of Toxicology, 2020)
# Like-named read-outs stand apart in the source and are kept apart here.
# Columns and labels:
# [1] = Plasma free fraction (fu) and unbound Cmax (Cmax,u); assay type: in vitro ADME, human; conditions: unbound plasma Cmax
# Protocol: The prediction of DILI severity was evaluated further using the 3D combined HCI assays using plasma-free fraction. The majority of fu values were obtained from literature, when unavailable in-house prediction was utilised. Unbound plasma Cmax concentrations (Cmax,u) were derived by multiplying total plasma Cmax with the corresponding free fraction (fu) for each compound.
# HepG2 cells [2] = conditions: cited from earlier work
# HepG2 cells [3] = conditions: cited from earlier work; remark: listed apart in the source
# PHH = conditions: cited from earlier work
# hLiMTs [4] = conditions: cited from earlier work
# PHH spheroids = conditions: cited from earlier work
# [5] = system: HepG2 C3A spheroid, BSEP, Glu/Gal in HepG2 cells, bioactivation; conditions: cited from earlier work
# [6] = read-out: Human plasma Cmax; total plasma Cmax.tot, median of 9 literature references; cited from earlier work
# [7] = plasma free fraction; cited from earlier work
# [8] = cited from earlier work
# [9] = system: THLE-Null and THLE-3A4 cells; conditions: In vitro Assay; ref Gustafsson 2014; cited from earlier work
# [10] = system: HepG2 cells, primary human hepatocytes; conditions: In vitro Assay; ref Garside 2014; cited from earlier work
# [11] = system: isolated mouse liver mitochondria; conditions: In vitro Assay; ref Porceddu 2012; cited from earlier work
# rBsep = conditions: In vitro Assay; ref Dawson 2012; cited from earlier work
# hLiMTs [12] = assay: Combined HCI (HCS) and cellular ATP 3D assay in hLiMTs
# HepaRG spheroids = assay: Combined HCI (HCS) and cellular ATP 3D assay in HepaRG spheroids
# Protocol: 3D spheroid models consisting of either primary human hepatocytes with non-parenchymal cells (hLiMT’s) or HepaRG cells (HepaRG spheroids) were assessed for size (MS), oxidative stress (OS), MMP, mitochondrial mass (MM), GSH and cellular ATP content following drug exposure. Fluorescent images are acquired using the confocal mode of an ArrayScan™ XTI HCI reader (ThermoScientific) following which cellular ATP was measured using 3D CellTiter-Glo (Promega).
# [13] = In vitro Assay, ref Persson 2013
# [14] = In vitro Assay, ref Proctor 2017
# [15] = Microtissue model structural based (HCI), combined HCS and ATP, MEC < 25 × Cmax.tot cut-off
smiles,measurement,setting,value
C#CCN(C)Cc1ccccc1 [pargyline],"Human plasma Cmax,u",[1],237 nM
same,Structural based (HCI),"HepG2 cells [2]; In vitro Assay, ref O'Brien 2006",-VE
same,"DILI in vitro assay prediction, O'Brien (2006)","HepG2 cells [2]; Structural based (HCI), HepG2, ref O'Brien et al. 2006",-VE
same,Cluser analysis,HepG2 cells [3]; [13],-VE
same,Structural based (HCI),HepG2 cells [3]; [13],-VE
same,"DILI in vitro assay prediction, Persson (2013)","HepG2 cells [3]; Structural based (HCI), HepG2, ref Persson et al. 2013",-VE
same,"PHH/100xCmax, Proctor (2017)","PHH; 2D PHH, ATP, IC50 < 100 × Cmax.tot, ref Proctor et al. 2017",-VE
same,"PHH/100uM, Proctor (2017)","PHH; 2D PHH, ATP, IC50 threshold 100 µM, ref Proctor et al. 2017",-VE
same,PHH ATP <100uM,PHH; [14],-VE
same,hLiMTs ATP <100uM,hLiMTs [4]; [14],-VE
same,"hLiMTs/100xCmax, Proctor (2017)","hLiMTs [4]; hLiMTs, ATP, IC50 < 100 × Cmax.tot, ref Proctor et al. 2017",-VE
same,"hLiMTs/100uM, Proctor (2017)","hLiMTs [4]; hLiMTs, ATP, IC50 threshold 100 µM, ref Proctor et al. 2017",-VE
same,hLiMTs ATP <20 x Cmax,"PHH spheroids; In vitro Assay, ref Vorrink 2018",-VE
same,"DILI in vitro assay prediction, Vorrink (2018)","PHH spheroids; PHH spheroids, ATP, 14 days, IC20 < 20 × Cmax.tot, ref Vorrink et al. 2018",-VE
same,"Bayesian Machine Learning DILI prediction, Williams (2019)","[5]; Bayesian modeling, ref Williams et al. 2019",-VE
same,Bayesian Machine Learning,"[5]; In vitro Assay, ref Williams 2019",-VE
same,Cmax,[6],819 nM
same,fu,[7],0.290
same,Assigned DILI category,"[8]; Chen et al. 2016 or literature alignment, ref Chen et al. 2016",1
same,In vivo DILI,[8]; ref Dawson 2012,-VE
same,In vivo DILI,[8]; ref Garside 2014,-VE
same,In vivo DILI,[8]; ref Gustafsson 2014,-VE
same,In vivo DILI,[8]; ref O'Brien 2006,-VE
same,In vivo DILI,[8]; ref Persson 2013,-VE
same,In vivo DILI,[8]; ref Porceddu 2012,-VE
same,In vivo DILI,[8]; ref Proctor 2017,-VE
same,In vivo DILI,[8]; ref Vorrink 2018,-VE
same,In vivo DILI,[8]; ref Williams 2019,-VE
same,THLE-Null,[9],-VE
same,THLE-Null/3A4,[9],-VE
same,Cluster 1-6 +VE Assay,[10],+VE
same,in vitro data EC2<=1x Cmax,[11],-VE
same,in vitro data EC20<=2uM,[11],-VE
same,Inhibition of rBsep cutoff<1& cmax u>.2,rBsep,-VE
same,Inhibition of rBsep cutoff<3,rBsep,-VE
same,DILI prediction hLiMTs (HCS-MEC),hLiMTs [12]; [15],-VE
same,hLiMTs <25x Avg Cmax ATP,"hLiMTs [12]; hLiMTs, ATP endpoint, cut-off <25x Avg Cmax",-ve
same,hLiMTs <100x Avg Cmaxu ATP,"hLiMTs [12]; hLiMTs, ATP endpoint, cut-off <100x Avg Cmaxu",-ve
same,hLiMTs <25x Avg Cmax HCS,"hLiMTs [12]; hLiMTs, HCS endpoints, cut-off <25x Avg Cmax",-ve
same,hLiMTs <100x Avg Cmaxu HCS,"hLiMTs [12]; hLiMTs, HCS endpoints, cut-off <100x Avg Cmaxu",-ve
same,hLiMTs <25x Avg Cmax All,"hLiMTs [12]; hLiMTs, all endpoints (ATP and HCS), cut-off <25x Avg Cmax",-ve
same,hLiMTs Cmax max All,"hLiMTs [12]; hLiMTs, all endpoints, Cmax max used",-ve
same,hLiMTs Cmax min All,"hLiMTs [12]; hLiMTs, all endpoints, Cmax min used",-ve
same,hLiMTs <10 uM All,"hLiMTs [12]; hLiMTs, all endpoints, cut-off <10 uM",-ve
same,hLiMTs <100x Avg Cmaxu All,"hLiMTs [12]; hLiMTs, all endpoints, cut-off <100x Avg Cmaxu",-ve
same,HepaRG <25x Avg Cmax ATP,"HepaRG spheroids; HepaRG, ATP endpoint, cut-off <25x Avg Cmax",-ve
same,HepaRG <100x Avg Cmaxu ATP,"HepaRG spheroids; HepaRG, ATP endpoint, cut-off <100x Avg Cmaxu",-ve
same,HepaRG <25x Avg Cmax HCS,"HepaRG spheroids; HepaRG, HCS endpoints, cut-off <25x Avg Cmax",-ve
same,HepaRG <100x Avg Cmaxu HCS,"HepaRG spheroids; HepaRG, HCS endpoints, cut-off <100x Avg Cmaxu",-ve
same,HepaRG <25x Avg Cmax All,"HepaRG spheroids; HepaRG, all endpoints (ATP and HCS), cut-off <25x Avg Cmax",-ve
same,HepaRG Cmax max All,"HepaRG spheroids; HepaRG, all endpoints, Cmax max used",-ve
same,HepaRG Cmax min All,"HepaRG spheroids; HepaRG, all endpoints, Cmax min used",-ve
same,HepaRG <10 uM All,"HepaRG spheroids; HepaRG, all endpoints, cut-off <10 uM",-ve
same,HepaRG <100x Avg Cmaxu All,"HepaRG spheroids; HepaRG, all endpoints, cut-off <100x Avg Cmaxu",-ve
same,DILI prediction HepaRG spheroids (HCS-MEC),HepaRG spheroids; [15],-VE
